These molecules were tested on 4T1 (ATCC CRL-2539) tumor allograft (assay: In vivo phage display panning, breast carcinoma model, tumor vascular homing phage). Conditions: tumors resected 5-7 h post phage injection, 3-4 rounds of panning.
Design: species or system mouse
Description: (§1) To identify peptide sequences displaying homing potential to specific tumors or to the vasculature of specific tumors, in vivo phage display panning was performed. Utilizing commercially available M13-based phage libraries (PhD-7 Prod# E8100S and PhD-C7C E8120S, New England Biolabs, Ipswich, Mass.) phage were isolated that were enriched after 3-4 rounds of panning in different tumor models. These phage particles display surface peptides that potentially confer homing and cellular uptake capabilities.
Panning was conducted in 4T1 (ATCC CRL-2539) tumor allograft bearing mice. Tumors were resected 5-7 h post phage injection.

| Molecule | Frequency of enriched sequence |
| --- | --- |
| 22 (GHSKAMY; Breast carcinoma tumor vascular homing probe) [compound 22] | 4/12 |
| 28 (CDPRNPNWC; Breast carcinoma tumor vascular homing probe) [compound 28] | 1/12 |
| 30 (CPAGQNAHC) [compound 30] | 1/12 |
| 24 (NLLAPAG; Breast carcinoma tumor vascular homing probe) [compound 24] | 1/12 |
| 26 (AMPLPVP; Breast carcinoma tumor vascular homing probe) [compound 26] | 1/12 |
| 23 (GHGASIS; Breast carcinoma tumor vascular homing probe) [compound 23] | 1/12 |
| 25 (HDLPAVR; Breast carcinoma tumor vascular homing probe) [compound 25] | 1/12 |
| 29 (CLPRHDPYC) [compound 29] | 1/12 |
| 27 (HESTWGP; Breast carcinoma tumor vascular homing probe) [compound 27] | 1/12 |

What follows are molecules tested on MMTV-HER2/neu (YD) Id1−/− tumor cells (assay: MMTV-HER2/neu (YD) Id1−/− allograft model, osmotic pumps, with and without 17-AAG). Conditions: Id1-PCAO 7 nmol/d s.c. pumps; F3 and Id1-AO each 20 nmol/d; 17-AAG i.p. 3 consecutive days per week; FIG. 7.
Format: in vivo, mouse
Text: Proc Natl Acad Sci USA 100, 12337-42 (2003)), perhaps due to the requirement of Hsp90 for maintaining Hif1-alpha or HER2/neu stability. Id1-PCAOs were therefore tested in combination with 17-AAG in the MMTV-HER2/neu (YD) Id1-/- allograft model. The Id1-PCAO was delivered in this prolonged experiment via subcutaneously implanted osmotic pumps (7 nmol/d). 17-AAG was given by intraperitoneal injection according to an established protocol, on 3 consecutive days per week after tumor establishment. As controls, saline or the un-conjugated components of the Id1-PCAO (F3-peptide and Id1-AO each at 20 nmol/d) were administered. […] To further control for non-specific effects we repeated the experiment using the same tumor model and added […] which was delivered at the same rate as the Id1-PCAO (7 nmol/d) and the F3-peptide without addition of Id1-AO (20 nmol/d) as control substances. […] The decrease in Id1-positive cells after administration of Id1-PCAO alone was less dramatic than in the intravenous protocol described above. This might be due to the slight decrease in dosage and the changed route of administration (s.c. vs. i.v.). […] Alternatively, animals were implanted s.c. with osmotic pumps (Durect Corp., Cupertino, Calif.) that delivered 7 nmol/d Id1-PCAO (3.5 mg/kg BW) in TBS over a 14 day period. Controls received 20 nmol/d F3-peptide plus 20 nmol/d Id1-AO (in TBS) or TBS. 2×106 MMTV-HER2/neu (YD) Id1-/- tumor cells were injected into the left flank 24 h after implantation of the pumps. After the 14 days treatment period, pumps were replaced using a model with a work period of 7 days. […] Control animals received DMSO:EPL 1:1 i.p at the same schedule. Tumor size was measured using a calliper. Volume was calculated as V=(/6×longest diameter×perpendicular diameter2). Image acquisition and analysis: Epifluorescence, bright field and phase contrast images were acquired using Zeiss Axiostar 200 microscopes. Leica laser confocal microscopes were used for co-localisation studies. For quantification, large fields of the tissue sections were acquired using an automated image acquisition and montaging system (Zeiss Axiostar 200M microscope with MetaMorph Software, Molecular Devices, Sunnyvale, Calif.). […] Three or 4 large field images were used to quantify each section. Stained areas were quantified using MetaMorph or ImageJ software (http://rsb.info.nih.gov/ij/). Images were threshholded and stained area (CD31) was calculated or particles per field were counted (Id1 or Hif1 positive cells). To quantify extent of haemorrhage, H&E whole tumor sections were imaged with a 5× objective and evaluated using the colour threshold function of the Metamorph software.

| Molecule | tumor growth, agent alone |
| --- | --- |
| C=CCNC1=C2C[C@@H](C)C[C@H](OC)[C@H](O)[C@@H](C)/C=C(\C)[C@H](OC(N)=O)[C@@H](OC)/C=C\C=C(/C)C(=O)NC(=CC1=O)C2=O [17-AAG, 17-(allylamino)-17-demethoxygeldanamycin] | delayed tumor growth |

Same assay, conditions: mouse, in vivo

| Molecule | Hif1-alpha expression | Id1-positive endothelial cells in the tumor, agent alone | vascular density |
| --- | --- | --- | --- |
| C=CCNC1=C2C[C@@H](C)C[C@H](OC)[C@H](O)[C@@H](C)/C=C(\C)[C@H](OC(N)=O)[C@@H](OC)/C=C\C=C(/C)C(=O)NC(=CC1=O)C2=O [17-AAG, 17-(allylamino)-17-demethoxygeldanamycin] | counteracted this response | decrease of Id1-positive endothelial cells in the tumor | decreased vascular density |

These molecules were tested on 4T1 (ATCC CRL-2539) tumor allograft (assay: In vivo phage display panning, breast carcinoma model, tumor cell homing phage). Conditions: tumors resected 24 h post phage injection, 3-4 rounds of panning.
Design: species or system mouse
Description: as §1
Panning was conducted in 4T1 (ATCC CRL-2539) tumor allograft bearing mice. Tumors were resected 24 h post phage injection.

| Molecule | Frequency of enriched sequence |
| --- | --- |
| 19 (TSMTSYR; Breast Carcinoma homing probe) [compound 19] | 1/12 |
| 16 (YSMPAPV; Breast Carcinoma homing probe) [compound 16] | 2/12 |
| 17 (DSTRPHY; Breast Carcinoma homing probe) [compound 17] | 2/12 |
| 18 (KYESAPT; Breast Carcinoma homing probe) [compound 18] | 1/12 |
| 15 (KWGSNNL; Breast Carcinoma homing probe) [compound 15] | 4/12 |
| 21 (HTPMALE; Breast Carcinoma homing probe) [compound 21] | 1/12 |
| 20 (EKNLTRP; Breast Carcinoma homing probe) [compound 20] | 1/12 |

What follows are molecules tested on tumor endothelium of high-grade malignant glioma (assay: Accumulation of FITC-labeled Grp78-GMBS-ASId1 in high-grade malignant glioma mouse model). Conditions: retro-orbital injection, four hours post injection.
Format: in vivo
Text: In a further specific example, the therapeutic agent combines a Grp78 targeting peptide with an Id1 targeting antisense oligonucleotide. A therapeutic agent of this type was synthesized using the Grp-78 targeting peptide of Seq. ID No. 4, GMBS as the HBL, and Id1 antisense of Seq. ID No. 2, labeled with FITC and injected retro-orbitally into a mouse model with a high-grade malignant glioma. Four hours post injection the mouse was sacrificed, and tissue was processed for imaging.

| Molecule | accumulation in imaged tissue | blood brain barrier crossing |
| --- | --- | --- |
| Grp78-GMBS-ASId1: Grp-78 targeting peptide of Seq. ID No. 4, GMBS as the HBL, Id1 antisense of Seq. ID No. 2, labeled with FITC (chain WIFPWIQL; antisense gcaccagctccttgaggcgugag; GMBS linker, FITC label; GRP78 homing peptide; antisense oligonucleotide targeting ID1.) | accumulate around tumor blood vessels | crossed the blood brain barrier |

Each molecule was assayed on SVR (ATCC CRL-2280, a murine endothelial cell line) tumor allograft (assay: In vivo phage display panning, angiosarcoma model). Conditions: tumors resected 24 h post phage injection, 3-4 rounds of panning.
Design: species or system mouse
Description: as §1
Panning was conducted in SVR (ATCC CRL-2280, a murine endothelial cell line) tumor allograft bearing mice. Tumors were resected 24 h post phage injection.

| Molecule | Frequency of enriched sequence |
| --- | --- |
| 11 (MFEPVLP; Angiosarcoma homing probe) [compound 11] | 1/15 |
| 13 (TSLKMQV; Angiosarcoma homing probe) [compound 13] | 1/15 |
| 12 (TLSKQST; Angiosarcoma homing probe) [compound 12] | 1/15 |
| 10 (FPGGYTP; Angiosarcoma homing probe) [compound 10] | 11/15 |
| 14 (ERVLMQV; Angiosarcoma homing probe) [compound 14] | 1/15 |
